The subject of assay [1] is GRP78 protein expression, HepG2 hepatocytes. The assay is described as follows: GRP78 protein expression by anti-GRP78 immunoblot in hepatocytes. Particulars: UPR activation by tunicamycin 5 µg/mL or thapsigargin 0.3 µM; Fig. 6C. The format is cell-based, human. The procedure: (§1) Figure 6 Role of the gluconeogenic/glycogenolytic enzyme G6Pase: Response to PST, GRP78, and inhibition of GRP78's ATPase enzymatic activity. (A) G6Pase expression, PST, and GRP78. Human HepG2 hepatocytes were transfected with G6P-ase→luciferase, along with pCMV-GRP78 or an empty vector (pCMV promoter without insert). 5 hrs after transfection, cells were treated with PST (100 nM) itself (versus mock), or by UPR activation (tunicamycin, 5 µg/mL; or thapsigargin, 0.3 µM). Cells were harvested at 18–20 hrs to measure luciferase activity and protein. (B) G6Pase expression during ATPase enzymatic activity inhibition of GRP78. Human HepG2 hepatocytes were transfected as in (A), and 5 hrs later were treated with the GRP78 ATPase inhibitors VER-155008 (1 µM), ADP (10 µM), or PST (100 nM). Cells were harvested at 18–20 hrs to measure luciferase activity and protein. (C) GRP78 expression: Visualization by immunoblot. Changes in GRP78 expression are shown by anti-GRP78 immunoblot (control: anti-actin), during either UPR activation (by thapsigargin 0.3 µM or tunicamycin 5 µg/mL), or exogenous over-expression (transfection of pCMV-GRP78).

The subject of assay [2] is human G6P-ase promoter-luciferase reporter, HepG2 hepatocytes. In words: G6Pase promoter-luciferase reporter activity in HepG2 hepatocytes. It is filed as cell-based. Particulars: for effect on reduction of G6Pase promoter activity by GRP78 over-expression: PST 100 nM, HepG2 with pCMV-GRP78, Fig. 6B; for effect on reduction of G6Pase promoter activity by GRP78 over-expression / basal G6Pase-luciferase promoter activity with GRP78 ATPase inhibitor: VER-155008 1 µM or ADP 10 µM; for basal G6Pase-luciferase promoter activity with GRP78 ATPase inhibitor: HepG2, Fig. 6B. How it is done:
The human G6P-ase promoter-luciferase reporter plasmid has been described. The GRP78 (BIP) promoter-luciferase reporter was a gift from Bruce M. Spiegelman (Harvard Medical School). The pCMV promoter-driven human GRP78 (HSPA5) expression plasmid was from Origene <www.origene.com/>. pSV-Beta-Gal (a transfection efficiency control plasmid, in which the SV40 early promoter drives expression of beta-galactosidase) was obtained from Promega <www.promega.com>.
Cells were plated on 24 well tissue culture plates the day before transfection. 0.5 to 1.0 µg of total DNA per well was used for transfection with Transfectin (BioRad). In some experiments, pSV-Beta-Gal (Promega; in which the SV40 early promoter drives expression of beta-galactosidase) was co-transfected as a transfection efficiency control. After 5 hrs supernatants were removed and fresh media containing different compounds as mentioned in the respective figures were added. 18 hrs after transfection, supernatants were removed and cells were lysed in passive lysis buffer (Promega) and the luciferase and beta-galactosidase activity were measured. Luciferase activity was normalized by beta-galactosidase as well as cellular protein, determined by dye-binding (coomassie G-250; BioRad).
Figure 5 PST acts on both uptake and mobilization steps for glucose: Effects on cellular glucose metabolism and insulin action. (A) PST and glucose uptake. Mouse 3T3-L1 cells were induced to differentiate into adipocytes, and 7–10 days post-differentiation glucose uptake was measured by incubating cells with 2-deoxy-[^3H]-glucose in the presence or absence of PST (100 nM), insulin (100 nM), or insulin plus PST (100 nM each). (B) Glucose mobilization and PST: Effects on expression of the gluconeogenic/glycogenolytic enzyme G6Pase (glucose-6-phosphatase). Human HepG2 hepatocytes were transfected with a glucose-6-phosphatase (G6P-ase)→luciferase reporter plasmid along with a beta gal reporter plasmid as mentioned in the experimental procedures, and 5 hrs after transfection cells were treated with PST (100 nM), insulin (100 nM), or both insulin and PST (100 nM each). Cells were harvested at 18–20 hrs after transfection to measure luciferase activity, beta gal activity and protein.
as §1

The subject of a further assay is db/db mice. Also on record: method as in PMID 16931765. Particulars: ref [38]; cited from earlier work.
The subject of the next assay is GRP78 (HSPA5, BIP). The assay is described as follows: Ligand affinity isolation of PST binding protein from mouse liver membranes (biotinylated peptide as bait, streptavidin agarose, SDS-PAGE, LC-MS/MS). Particulars: control ligand affinity experiment, immobilized biotinylated catestatin (human CHGA352–372), liver homogenate; results not shown.
Another assay relates to cellular glucose uptake. Conditions: naturally occurring human variant; ref [14]; cited from earlier work. The source says:
The activity of PST as a regulatory gastroenteropancreatic peptide has been established in the light of a variety of biological effects in a number of tissues [6]–[9], including its role in modulation of energy metabolism, with a general counter-regulatory effect to insulin. […] Metabolic effects of PST have been c ...

We go through nine compounds from article PMC3896336, “Discovery of a Novel Target for the Dysglycemic Chromogranin A Fragment Pancreastatin: Interaction with the Chaperone GRP78 to Influence Metabolism” (PLoS ONE, 2014).

“Also recorded” adds a separate entry of the source. Where no end group is shown, it is not given here.

Description for GRP78 (HSPA5, BIP): Freshly obtained normal mouse liver was homogenized in cold, freshly prepared buffer (10 mM Hepes, pH 7.4, 0.1 mM EDTA) with a cocktail of protease inhibitors (Protease inhibitor cocktail set III, Calbiochem at 1∶100: PMSF 5 mM, benzamidine hydrochloride 50 mg/mL, TLCK [N-Tosyl-Lys Chloromethyl Ketone] hydrochloride 0.1 mM), and centrifuged at 50,000 g for 30 min to pellet crude membranes. The membrane preparation was washed once with the same buffer and then solubilized with 1% v/v Triton X-100 in 25 mM Hepes pH 7.4, 100 mM NaCl, 2 mM MgCl2, 1 mM KCl and protease inhibitor cocktail as mentioned above, for 1 hr at 4°C, then centrifuged at 100,000 g for 1 hr, and the supernatant was saved.
The streptavidin resin was washed extensively with the same buffer and then incubated with solubilized liver membranes for 18 hr at 4°C. […] Fractions eluted were concentrated by TCA precipitation and analyzed on 8–16% SDS-PAGE gradient slab gels, stained with coomassie blue G-250 (SimplyBlue Safestain; Invitrogen).
Gel slices were cut to 1×1 mm cubes and destained 3 times by first washing with 100 µl of 100 mM ammonium bicarbonate for 15 min, followed by addition of 100 µl acetonitrile (ACN) for 15 min. […] The combined extractions were analyzed directly by reverse-phase liquid chromatography (LC) in combination with tandem mass spectroscopy (MS/MS) using electrospray ionization [29]. […]

tunicamycin: in assay [1], the “increase in GRP78 protein expression as compared to untreated cells” value is approximately 15 fold.
With `Nc1ncnc2c1ncn2[C@@H]1O[C@H](COP(=O)(O)OP(=O)(O)O)[C@@H](O)[C@H]1O` [ADP, adenosine 5′-diphosphate], in assay [2], the “effect on reduction of G6Pase promoter activity by GRP78 over-expression” value was “could not fully overcome the effect of GRP78 over-expression; also recorded: could still be partially reversed” and the “basal G6Pase-luciferase promoter activity with GRP78 ATPase inhibitor” value is “basal G6Pase-luciferase promoter activity rose (Fig. 6B) to a level comparable to PST activation”.
For `O=C(O)CCCc1ccccc1` [4-phenylbutyric acid (PBA), 4-phenylbutyric acid], in the assay on db/db mice, the “ER stress, glucose homeostasis and insulin sensitivity” value was “reduced ER stress, with restored glucose homeostasis and improved insulin sensitivity”.
For insulin, in assay [2] (insulin 100 nM plus PST 100 nM, HepG2, Fig. 5B), the “suppression of PST-induced activation of the G6Pase promoter” value was approximately 40%.
Regarding `C/C=C(/C)C(=O)O[C@H]1C(C)=C2[C@H]([C@@H]1OC(=O)CCCCCCC)[C@@](C)(OC(C)=O)C[C@H](OC(=O)CCC)[C@@]1(O)[C@H]2OC(=O)[C@@]1(C)O` [thapsigargin], the “increase in GRP78 protein expression as compared to untreated cells” value in assay [1] is approximately 15 fold.
With catestatin, in the assay on GRP78 (HSPA5, BIP), the “pull down of GRP78” value is given as “did not pull down the GRP78 protein”.
Consider `C[C@H](CCC(=O)NCCS(=O)(=O)O)[C@H]1CC[C@H]2[C@@H]3[C@@H](O)C[C@@H]4C[C@H](O)CC[C@]4(C)[C@H]3CC[C@]12C` [TUDCA, tauroursodeoxycholic acid], for which, in the assay with db/db mice, the “ER stress, glucose homeostasis and insulin sensitivity” value is “reduced ER stress, with restored glucose homeostasis and improved insulin sensitivity”.
As to “Gly297Ser: naturally occurring human PST variant, Gly297Ser in the functionally important carboxyl terminus of the peptide (SEALAVDGAGKPGAEEAQDPEGKGEQEHSQQKEEEEEMAVVPQSLFRG; ends and bridges not checked; UniProt P10645 272-319, looked up, variant G297S)”, the “potency to inhibit cellular glucose uptake” value in the assay on cellular glucose uptake was “substantially increasing its potency to inhibit cellular glucose uptake”.
In the case of `N#Cc1ccc(COC[C@H]2O[C@@H](n3c(NCc4ccc(Cl)c(Cl)c4)nc4c(N)ncnc43)[C@H](O)[C@@H]2O)cc1` [VER-155008], in assay [2], the “effect on reduction of G6Pase promoter activity by GRP78 over-expression” value was “could not fully overcome the effect of GRP78 over-expression; also recorded: could still be partially reversed” and the “basal G6Pase-luciferase promoter activity with GRP78 ATPase inhibitor” value is given as “basal G6Pase-luciferase promoter activity rose (Fig. 6B) to a level comparable to PST activation”.
